Test results reported in PubChem BioAssay AID248 (DTP/NCI, 2004).
Several values for one entry are separate records, joined by “and”; a condition that tells them apart may be missing. Equal entries are not always repeated. Inconclusive results and toxic doses are left out. No stated cut-off is given here; in the data, active means T/C of 150% or more; inactive means T/C below 125%.

System: L1210 leukemia ip in BDF1 mice, survival T/C
Assay: NCI In Vivo Anticancer Drug Screen. Data for tumor model L1210 Leukemia (intraperitoneal) in B6D2F1 (BDF1) mice
Conditions: endpoint: mean survival time, higher = longer survival
Protocol: The antitumor activity of compounds was measured in mice bearing transplantable tumors. Survival or tumor size were measured and the results are expressed as the measurement made in the treated group (T) divided by the measurement made in the vehicle treated control group (C). The tumor model used in this assay is L1210 Leukemia (intraperitoneal) in B6D2F1 (BDF1) mice

[1] = dose: 100.0 mg/kg/injection, schedule: Q01DX001 (ip), vehicle: Klucel (hydroxypropylcellulose) (HPC)
[2] = dose: 200.0 mg/kg/injection, schedule: Q01DX001 (ip), vehicle: Klucel (hydroxypropylcellulose) (HPC)
[3] = dose: 400.0 mg/kg/injection, schedule: Q01DX001 (ip), vehicle: Klucel (hydroxypropylcellulose) (HPC)
[4] = dose: 100.0 mg/kg/injection, schedule: Q04DX003 (ip), vehicle: Klucel (hydroxypropylcellulose) (HPC)
[5] = dose: 200.0 mg/kg/injection, schedule: Q04DX003 (ip), vehicle: Klucel (hydroxypropylcellulose) (HPC)
[6] = dose: 100.0 mg/kg/injection, schedule: Q01DX009 (ip), vehicle: Klucel (hydroxypropylcellulose) (HPC)
[7] = dose: 200.0 mg/kg/injection, schedule: Q01DX009 (ip), vehicle: Klucel (hydroxypropylcellulose) (HPC)
[8] = dose: 400.0 mg/kg/injection, schedule: Q01DX009 (ip), vehicle: Klucel (hydroxypropylcellulose) (HPC)
[9] = dose: 400.0 mg/kg/injection, schedule: Q04DX003 (ip), vehicle: Klucel (hydroxypropylcellulose) (HPC)
[10] = dose: 100.0 mg/kg/injection, schedule: Q04DX003 (ip), vehicle: saline with Tween-80
[11] = dose: 200.0 mg/kg/injection, schedule: Q04DX003 (ip), vehicle: saline with Tween-80
[12] = dose: 400.0 mg/kg/injection, schedule: Q04DX003 (ip), vehicle: saline with Tween-80
[13] = dose: 100.0 mg/kg/injection, schedule: Q01DX001 (ip), vehicle: saline with Tween-80
[14] = dose: 200.0 mg/kg/injection, schedule: Q01DX001 (ip), vehicle: saline with Tween-80
[15] = dose: 400.0 mg/kg/injection, schedule: Q01DX001 (ip), vehicle: saline with Tween-80

Measured: T/C

Cc1nc(N)[nH]c(=O)c1CCCNCc1ccccc1
inactive: [1] 96 % of control | [2] 94 % of control | [3] 94 % of control

COC(=O)c1cccc(OC)c1I
inactive: dose: 50.0 mg/kg/injection, schedule: Q04DX003 (ip), vehicle: Klucel (hydroxypropylcellulose) (HPC) 98 % of control | [4] 106 % of control | [5] 103 % of control

CCC(=O)Nc1cc(C)c(C)cc1C
inactive: [6] 100 % of control | [7] 105 % of control

NNc1n[nH]c(=O)n1N
inactive: [4] 113 % of control | [5] 100 % of control

CC1(C(Cl)Cl)C=CC(=O)C=C1
inactive: [6] 90 % of control | dose: 100.0 mg/kg/injection, schedule: Q04DX003 (ip), vehicle: other 103 % of control | [7] 87 % of control | dose: 200.0 mg/kg/injection, schedule: Q04DX003 (ip), vehicle: other 111 % of control | [8] 106 % of control | dose: 400.0 mg/kg/injection, schedule: Q04DX003 (ip), vehicle: other 95 % of control

CCc1ccc(NC(=O)Nc2ccc(Cl)c(Cl)c2)cc1
inactive: [6] 90 % of control | [7] 103 % of control | [8] 103 % of control

C#CC(O)C1OC2OC(C)(C)OC2C1O (configuration not stated)
active: [6] 173 % of control
inactive: [4] 101 % of control | [7] 97 % of control | [5] 101 % of control | [8] 96 % of control | [9] 113 % of control

O=C1OC(=O)C2C3CC(C4OC34)C12 (configuration not stated)
inactive: [10] 95 % of control | [11] 100 % of control | [12] 94 % of control

COc1ccc(-c2sc(N)c(C#N)c2C)cc1OC
inactive: [13] 98 % of control | [10] 93 % of control and 97 % of control | [14] 93 % of control | [11] 95 % of control and 90 % of control | [15] 96 % of control | [12] 97 % of control and 102 % of control

O=C1C=CC(=O)N1C12CC3CC(CC(C3)C1)C2
inactive: dose: 12.5 mg/kg/injection, schedule: Q04DX002 (ip), vehicle: Klucel (hydroxypropylcellulose) (HPC) 98 % of control | dose: 25.0 mg/kg/injection, schedule: Q04DX002 (ip), vehicle: Klucel (hydroxypropylcellulose) (HPC) 105 % of control | dose: 50.0 mg/kg/injection, schedule: Q04DX002 (ip), vehicle: Klucel (hydroxypropylcellulose) (HPC) 94 % of control

COc1cc2ccc(CC(N)=O)cc2cc1OC
inactive: dose: 100.0 mg/kg/injection, schedule: Q04DX003 (ip), vehicle: saline 100 % of control | dose: 200.0 mg/kg/injection, schedule: Q04DX003 (ip), vehicle: saline 97 % of control | dose: 400.0 mg/kg/injection, schedule: Q04DX003 (ip), vehicle: saline 98 % of control

CS(=O)(=O)OCCCl
inactive: dose: 18.8 mg/kg/injection, schedule: Q01DX010 (ip), vehicle: saline 92 % of control and 96 % of control | dose: 37.5 mg/kg/injection, schedule: Q01DX010 (ip), vehicle: saline 92 % of control and 100 % of control | dose: 75.0 mg/kg/injection, schedule: Q01DX010 (ip), vehicle: saline 101 % of control and 104 % of control | dose: 150.0 mg/kg/injection, schedule: Q01DX010 (ip), vehicle: saline 97 % of control and 102 % of control

COC(=O)NS(=O)(=O)c1ccn(C)c1
inactive: [1] 97 % of control | [4] 100 % of control | [2] 98 % of control | [5] 100 % of control | [3] 104 % of control | [9] 100 % of control

N#CCSc1ncnc2nc[nH]c12
inactive: dose: 15.0 mg/kg/injection, schedule: Q01DX010 (ip), vehicle: saline 94 % of control and 116 % of control | dose: 30.0 mg/kg/injection, schedule: Q01DX010 (ip), vehicle: saline 97 % of control and 110 % of control | dose: 50.0 mg/kg/injection, schedule: Q01DX001 (ip), vehicle: carboxymethylcellulose (CMC) 107 % of control | dose: 60.0 mg/kg/injection, schedule: Q01DX010 (ip), vehicle: saline 118 % of control and 121 % of control | dose: 62.5 mg/kg/injection, schedule: Q01DX Z (ip), vehicle: carboxymethylcellulose (CMC) 109 % of control | dose: 76.0 mg/kg/injection, schedule: Q01DX001 (ip), vehicle: carboxymethylcellulose (CMC) 110 % of control | dose: 114.0 mg/kg/injection, schedule: Q01DX001 (ip), vehicle: carboxymethylcellulose (CMC) 107 % of control | dose: 171.0 mg/kg/injection, schedule: Q01DX001 (ip), vehicle: carboxymethylcellulose (CMC) 113 % of control | dose: 256.5 mg/kg/injection, schedule: Q01DX001 (ip), vehicle: carboxymethylcellulose (CMC) 123 % of control

C(=C1\CCc2cc3ccccc3nc21)/c1ccccc1
inactive: dose: 50.0 mg/kg/injection, schedule: Q01DX009 (ip), vehicle: saline with Tween-80 98 % of control | dose: 100.0 mg/kg/injection, schedule: Q01DX009 (ip), vehicle: saline with Tween-80 95 % of control | dose: 200.0 mg/kg/injection, schedule: Q01DX009 (ip), vehicle: saline with Tween-80 88 % of control

O=C(CNNc1ccc([N+](=O)[O-])cn1)Nc1ccc(S(=O)(=O)c2ccc(NC(=O)CNNc3ccc([N+](=O)[O-])cn3)cc2)cc1
inactive: dose: 10.0 mg/kg/injection, schedule: Q01DX Z (ip), vehicle: methylcellulose (MC) 91 % of control | dose: 15.0 mg/kg/injection, schedule: Q01DX Z (ip), vehicle: methylcellulose (MC) 95 % of control | dose: 22.5 mg/kg/injection, schedule: Q01DX Z (ip), vehicle: methylcellulose (MC) 94 % of control

CCCCCCCCCCCCCCCCCC(=O)N/N=C/c1ccc(OCC)c(OC)c1
inactive: [6] 86 % of control | [7] 91 % of control | [8] 88 % of control

CCOC(=O)CC(=O)O
inactive: dose: 100.0 mg/kg/injection, schedule: Q01DX001 (ip), vehicle: saline 91 % of control | dose: 200.0 mg/kg/injection, schedule: Q01DX001 (ip), vehicle: saline 97 % of control | dose: 400.0 mg/kg/injection, schedule: Q01DX001 (ip), vehicle: saline 91 % of control

CCCCCCCCCCC(C)CCCCCCCC (configuration not stated)
inactive: [13] 113 % of control | [14] 100 % of control | [15] 94 % of control

Nc1nc(N)c(-c2ccc(Cl)cc2)c(C(F)(F)F)n1
inactive: dose: 75.0 mg/kg/injection, schedule: Q01DX001 (ip), vehicle: saline with Tween-80 95 % of control | dose: 150.0 mg/kg/injection, schedule: Q01DX001 (ip), vehicle: saline with Tween-80 100 % of control | dose: 300.0 mg/kg/injection, schedule: Q01DX001 (ip), vehicle: saline with Tween-80 92 % of control
